Source: ChEMBL document CHEMBL1201862, “PubChem BioAssay data set” (2004)
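A five-concentration, 48-hour dose response in 96-well plates underlies each endpoint, interpolated linearly between surrounding concentrations. GI50: concentration for 50% inhibition of growth.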 The source made the active and inactive calls. No stated cut-off is given here; in the data, active = GI50 up to about 1.1 µM and inactive = higher.

How the values were obtained:
Assay in all cases: NCI anticancer screen, dose series, 48 h
786-0 = test system: 786-0
A498 = test system: A498
A549 = test system: A549
ACHN = test system: ACHN
CAKI-1 = test system: CAKI-1
CCRF-CEM = test system: CCRF-CEM
COLO 205 = test system: COLO 205
DLD-1 = test system: DLD-1
DMS-114 = test system: DMS-114
DMS-273 = test system: DMS-273
EKVX = test system: EKVX
HCC 2998 = test system: HCC 2998
HCT-116 = test system: HCT-116
HCT-15 = test system: HCT-15
HL-60 = test system: HL-60
HOP-18 = test system: HOP-18
HOP-62 = test system: HOP-62
HOP-92 = test system: HOP-92
HT-29 = test system: HT-29
IGROV-1 = test system: IGROV-1
K562 = test system: K562
KM-20L2 = test system: KM-20L2
KM12 = test system: KM12
LOX IMVI = test system: LOX IMVI
LXFL 529 = test system: LXFL 529
M14 = test system: M14
M19-MEL = test system: M19-MEL
MOLT-4 = test system: MOLT-4
Malme-3M = test system: Malme-3M
NCI-H226 = test system: NCI-H226
NCI-H23 = test system: NCI-H23
NCI-H460 = test system: NCI-H460
NCI-H522 = test system: NCI-H522
OVCAR-3 = test system: OVCAR-3
OVCAR-4 = test system: OVCAR-4
OVCAR-5 = test system: OVCAR-5
OVCAR-8 = test system: OVCAR-8
RPMI-8226 = test system: RPMI-8226
RXF 393 = test system: RXF 393
RXF 631 = test system: RXF 631
SF-268 = test system: SF-268
SF-295 = test system: SF-295
SF-539 = test system: SF-539
SK-MEL-28 = test system: SK-MEL-28
SK-MEL-2 = test system: SK-MEL-2
SK-MEL-5 = test system: SK-MEL-5
SK-OV-3 = test system: SK-OV-3
SN12C = test system: SN12C
SNB-19 = test system: SNB-19
SNB-75 = test system: SNB-75
SNB-78 = test system: SNB-78
SR = test system: SR
SW-620 = test system: SW-620
TK-10 = test system: TK-10
U-251 = test system: U-251
UACC-257 = test system: UACC-257
UACC-62 = test system: UACC-62
UO-31 = test system: UO-31
XF498 = test system: XF498

CC(C)c1c2[nH]c3ccccc3c2c(C(C)C)c2[nH]c3ccccc3c12
GI50 (786-0): > 52.5 µM (inactive)
GI50 (A498): > 100 µM (inactive)
GI50 (A549): > 100 µM (inactive)
GI50 (ACHN): 91.8 µM (inactive)
GI50 (CAKI-1): > 76.6 µM (inactive)
GI50 (CCRF-CEM): > 52.5 µM (inactive)
GI50 (COLO 205): 51.9 µM (inactive)
GI50 (DLD-1): > 78.7 µM (inactive)
GI50 (DMS-114): > 100 µM (inactive)
GI50 (DMS-273): 81.5 µM (inactive)
GI50 (EKVX): > 100 µM (inactive)
GI50 (HCC 2998): > 34.8 µM (inactive)
GI50 (HCT-116): > 67.3 µM (inactive)
GI50 (HCT-15): 16 µM
GI50 (HL-60): 16.5 µM (inactive)
GI50 (HOP-18): > 100 µM (inactive)
GI50 (HOP-62): > 100 µM (inactive)
GI50 (HOP-92): 22.4 µM (inactive)
GI50 (HT-29): 10.9 µM (inactive)
GI50 (IGROV-1): > 100 µM (inactive)
GI50 (K562): 7.78 µM (inactive)
GI50 (KM-20L2): 17.6 µM (inactive)
GI50 (KM12): 29.9 µM (inactive)
GI50 (LOX IMVI): 35.5 µM (inactive)
GI50 (LXFL 529): > 100 µM (inactive)
GI50 (M14): > 74.8 µM (inactive)
GI50 (M19-MEL): > 100 µM (inactive)
GI50 (MOLT-4): > 63.2 µM (inactive)
GI50 (Malme-3M): > 51.4 µM (inactive)
GI50 (NCI-H226): > 47.3 µM (inactive)
GI50 (NCI-H23): > 100 µM (inactive)
GI50 (NCI-H460): > 57.7 µM (inactive)
GI50 (NCI-H522): > 78.7 µM (inactive)
GI50 (OVCAR-3): > 54.1 µM (inactive)
GI50 (OVCAR-4): > 45.3 µM (inactive)
GI50 (OVCAR-5): 47.5 µM (inactive)
GI50 (OVCAR-8): > 100 µM (inactive)
GI50 (RPMI-8226): 17.7 µM (inactive)
GI50 (RXF 393): > 100 µM (inactive)
GI50 (RXF 631): > 100 µM (inactive)
GI50 (SF-268): > 100 µM (inactive)
GI50 (SF-295): > 65.9 µM (inactive)
GI50 (SF-539): > 100 µM (inactive)
GI50 (SK-MEL-28): > 100 µM (inactive)
GI50 (SK-MEL-2): > 100 µM (inactive)
GI50 (SK-MEL-5): > 100 µM (inactive)
GI50 (SK-OV-3): > 100 µM (inactive)
GI50 (SN12C): 35.6 µM (inactive)
GI50 (SNB-19): > 100 µM (inactive)
GI50 (SNB-75): > 89.7 µM (inactive)
GI50 (SNB-78): > 100 µM (inactive)
GI50 (SR): 24.7 µM (inactive)
GI50 (SW-620): > 82 µM (inactive)
GI50 (TK-10): > 100 µM (inactive)
GI50 (U-251): > 100 µM (inactive)
GI50 (UACC-257): > 100 µM (inactive)
GI50 (UACC-62): > 100 µM (inactive)
GI50 (UO-31): > 100 µM (inactive)
GI50 (XF498): > 100 µM (inactive)
